Publication PMC7718890 (Scientific Reports, 2020)
Where “and” joins values, the source holds several entries; their conditions need not be identical. Equal values may be shown once. Read-outs that look alike come from different tables or passages of the source.

How the values were obtained:
[1] = target: CarD·RNAP binding (CarD association with RPo)
[2] = Turbidity test (OD620) for aggregation; format: physicochemical
RNAP = settings: cited from earlier work

CarD·RNAP binding (CarD association with RPo), sequence (P9WGY5 whole entry): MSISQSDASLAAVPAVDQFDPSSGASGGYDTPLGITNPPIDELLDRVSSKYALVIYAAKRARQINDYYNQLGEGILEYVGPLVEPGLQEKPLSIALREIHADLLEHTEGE
CarD·RNAP binding (CarD association with RPo), sequence (P9WGI1 whole entry, further chain): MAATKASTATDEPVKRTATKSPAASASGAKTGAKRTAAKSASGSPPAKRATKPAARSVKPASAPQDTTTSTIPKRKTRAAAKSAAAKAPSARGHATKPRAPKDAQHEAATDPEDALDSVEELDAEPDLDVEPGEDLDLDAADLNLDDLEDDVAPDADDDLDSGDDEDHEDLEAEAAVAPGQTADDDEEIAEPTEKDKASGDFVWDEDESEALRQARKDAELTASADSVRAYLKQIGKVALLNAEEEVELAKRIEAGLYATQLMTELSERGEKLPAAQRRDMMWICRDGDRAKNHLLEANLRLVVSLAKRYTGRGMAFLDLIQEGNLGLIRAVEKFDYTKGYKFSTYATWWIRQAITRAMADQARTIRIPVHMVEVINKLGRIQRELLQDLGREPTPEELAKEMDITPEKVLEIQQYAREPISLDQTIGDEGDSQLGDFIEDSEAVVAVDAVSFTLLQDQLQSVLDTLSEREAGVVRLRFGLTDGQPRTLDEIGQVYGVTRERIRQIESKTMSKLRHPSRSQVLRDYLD
CarD·RNAP binding (CarD association with RPo), sequence (P9WGY7 whole entry, further chain): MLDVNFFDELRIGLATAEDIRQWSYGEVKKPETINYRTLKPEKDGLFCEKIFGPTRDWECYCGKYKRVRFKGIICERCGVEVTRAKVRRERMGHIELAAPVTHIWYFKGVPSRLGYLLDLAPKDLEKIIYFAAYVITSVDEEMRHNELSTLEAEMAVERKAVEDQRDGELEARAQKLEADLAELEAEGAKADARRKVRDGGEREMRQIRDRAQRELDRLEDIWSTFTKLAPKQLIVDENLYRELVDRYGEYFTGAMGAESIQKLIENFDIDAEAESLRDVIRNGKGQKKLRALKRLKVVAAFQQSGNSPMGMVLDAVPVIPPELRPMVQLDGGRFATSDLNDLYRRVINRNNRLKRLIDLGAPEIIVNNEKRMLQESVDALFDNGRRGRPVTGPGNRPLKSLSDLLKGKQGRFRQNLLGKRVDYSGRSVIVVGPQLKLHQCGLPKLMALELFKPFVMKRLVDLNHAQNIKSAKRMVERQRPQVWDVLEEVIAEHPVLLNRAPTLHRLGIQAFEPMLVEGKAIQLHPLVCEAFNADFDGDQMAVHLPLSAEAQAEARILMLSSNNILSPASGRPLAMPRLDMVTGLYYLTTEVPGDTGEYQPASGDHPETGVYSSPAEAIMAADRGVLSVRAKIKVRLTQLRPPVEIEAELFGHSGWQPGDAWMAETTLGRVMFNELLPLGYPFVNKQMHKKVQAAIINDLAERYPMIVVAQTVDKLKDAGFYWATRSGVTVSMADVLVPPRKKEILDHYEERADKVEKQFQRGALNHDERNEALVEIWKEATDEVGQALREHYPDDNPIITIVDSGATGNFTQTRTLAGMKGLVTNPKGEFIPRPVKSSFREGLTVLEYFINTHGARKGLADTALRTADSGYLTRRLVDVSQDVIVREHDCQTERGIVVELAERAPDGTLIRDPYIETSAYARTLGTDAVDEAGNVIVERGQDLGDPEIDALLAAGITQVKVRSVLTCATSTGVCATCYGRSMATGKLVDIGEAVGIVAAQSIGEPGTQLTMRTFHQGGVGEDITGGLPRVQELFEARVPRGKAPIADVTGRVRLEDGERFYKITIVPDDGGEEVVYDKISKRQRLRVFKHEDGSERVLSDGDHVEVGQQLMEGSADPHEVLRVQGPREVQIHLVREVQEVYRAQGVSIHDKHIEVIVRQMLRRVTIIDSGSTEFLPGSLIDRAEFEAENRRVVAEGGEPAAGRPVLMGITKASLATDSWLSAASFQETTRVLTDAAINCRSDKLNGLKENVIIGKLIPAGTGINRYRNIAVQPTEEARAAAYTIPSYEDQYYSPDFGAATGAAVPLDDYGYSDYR
CarD·RNAP binding (CarD association with RPo), sequence (P9WGY9 whole entry, further chain): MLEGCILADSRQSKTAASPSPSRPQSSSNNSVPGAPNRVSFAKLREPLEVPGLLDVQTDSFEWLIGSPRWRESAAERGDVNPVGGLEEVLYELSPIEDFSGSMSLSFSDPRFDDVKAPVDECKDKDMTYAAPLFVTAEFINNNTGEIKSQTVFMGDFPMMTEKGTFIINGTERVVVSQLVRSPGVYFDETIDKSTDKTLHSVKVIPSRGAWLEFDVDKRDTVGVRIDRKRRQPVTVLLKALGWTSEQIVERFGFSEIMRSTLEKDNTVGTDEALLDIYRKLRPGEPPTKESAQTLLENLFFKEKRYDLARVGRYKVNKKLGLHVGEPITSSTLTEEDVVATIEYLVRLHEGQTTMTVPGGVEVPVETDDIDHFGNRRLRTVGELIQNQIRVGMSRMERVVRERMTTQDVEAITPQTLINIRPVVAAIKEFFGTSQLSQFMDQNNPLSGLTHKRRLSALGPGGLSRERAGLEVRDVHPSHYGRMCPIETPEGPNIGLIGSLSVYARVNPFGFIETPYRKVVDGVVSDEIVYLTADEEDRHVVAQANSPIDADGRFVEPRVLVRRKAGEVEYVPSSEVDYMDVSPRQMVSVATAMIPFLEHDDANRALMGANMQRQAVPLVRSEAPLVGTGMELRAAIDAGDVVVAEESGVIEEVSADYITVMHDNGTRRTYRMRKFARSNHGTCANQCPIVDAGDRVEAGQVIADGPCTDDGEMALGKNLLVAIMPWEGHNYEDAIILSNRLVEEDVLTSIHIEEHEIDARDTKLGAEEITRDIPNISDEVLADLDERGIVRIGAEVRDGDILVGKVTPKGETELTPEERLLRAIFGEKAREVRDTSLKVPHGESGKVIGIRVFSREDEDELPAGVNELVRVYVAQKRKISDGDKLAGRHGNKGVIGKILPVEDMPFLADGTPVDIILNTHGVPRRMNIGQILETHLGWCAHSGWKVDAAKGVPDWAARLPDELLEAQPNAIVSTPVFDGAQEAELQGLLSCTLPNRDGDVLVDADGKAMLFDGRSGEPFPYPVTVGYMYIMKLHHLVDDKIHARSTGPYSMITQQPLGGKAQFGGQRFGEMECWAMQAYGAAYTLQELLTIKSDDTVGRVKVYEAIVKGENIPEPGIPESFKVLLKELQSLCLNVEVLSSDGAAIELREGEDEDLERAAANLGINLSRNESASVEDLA
CarD·RNAP binding (CarD association with RPo), sequence (P9WGZ1 whole entry, further chain): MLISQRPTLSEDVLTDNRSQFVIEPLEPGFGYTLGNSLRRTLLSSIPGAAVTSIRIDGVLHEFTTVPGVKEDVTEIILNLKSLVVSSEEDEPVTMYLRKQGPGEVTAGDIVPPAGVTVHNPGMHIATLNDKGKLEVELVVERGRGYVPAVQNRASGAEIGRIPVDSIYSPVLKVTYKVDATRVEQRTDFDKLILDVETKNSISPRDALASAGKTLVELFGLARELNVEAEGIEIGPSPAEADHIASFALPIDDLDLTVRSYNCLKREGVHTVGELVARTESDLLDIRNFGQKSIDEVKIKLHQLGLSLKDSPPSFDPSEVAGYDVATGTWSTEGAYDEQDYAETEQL

Compound	IC50 [1]	Concentration above which compound is prone to aggregation (turbidity curve) [2]	IC50 (RNAP; read-out: IC50 In Vitro Transcription +RbpA)	IC50 (RNAP; read-out: IC50 In Vitro Transcription -RbpA)
Cc1cc2c(NC(=O)Nc3ccccc3)cccc2nn1 [CCG-237488]	20 µM			
O=C(O)c1ccc(-c2nc3ccc(-c4ccc5nc(-c6ccc(C(=O)O)cc6)[nH]c5c4)cc3[nH]2)cc1 [CCG-249580]	32 µM and 45 µM	higher than 34 µM		
CCc1c(Cl)c(O)c(Cl)c(O)c1C(=O)O[C@H]1[C@H](O)[C@H](OC)[C@H](OC/C2=C\C=C\C[C@H](O)/C(C)=C/[C@H](CC)[C@@H](O[C@@H]3OC(C)(C)[C@@H](OC(=O)C(C)C)[C@H](O)[C@@H]3O)/C(C)=C/C(C)=C/C[C@@H]([C@@H](C)O)OC2=O)O[C@@H]1C [Fidaxomicin]			0.21 µM	7 µM
